Measured values reported in ChEMBL document CHEMBL3714723, “Thiazole and oxazole-substituted arylamides as P2X3 and P2X2/3 antagonists” (2010).
The source made the active and inactive calls. The rule behind the calls is not given here.

biological target: T1, P2X purinoceptor 3 (Rattus norvegicus) (UniProt P49654); assay: Antagonist activity against rat P2X3 receptor expressed in CHOK1 cells assessed as inhibition of alpha,beta-meATP-induced calcium response incubated for 20 mins by Fluo-3AM dye based FLIPR assay; assay type: functional, cell-based; conditions: CHO-K1
T1 sequence (whole entry): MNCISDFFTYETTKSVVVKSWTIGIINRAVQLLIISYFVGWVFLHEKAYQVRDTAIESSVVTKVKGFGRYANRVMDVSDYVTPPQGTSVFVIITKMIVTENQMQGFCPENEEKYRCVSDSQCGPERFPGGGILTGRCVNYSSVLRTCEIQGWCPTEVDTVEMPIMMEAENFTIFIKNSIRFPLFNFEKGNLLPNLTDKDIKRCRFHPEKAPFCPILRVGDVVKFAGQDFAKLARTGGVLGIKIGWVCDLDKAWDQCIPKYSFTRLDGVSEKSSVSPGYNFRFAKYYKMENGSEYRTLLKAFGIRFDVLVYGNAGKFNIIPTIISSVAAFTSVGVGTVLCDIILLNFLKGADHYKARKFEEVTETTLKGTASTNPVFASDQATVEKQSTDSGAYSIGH

Antagonist activity call (active/inactive), active:
Cc1ccc(-c2cc(C(=O)N[C@H](C)CN3CCN(S(C)(=O)=O)CC3)cc(-c3cncs3)c2)cc1, COCC(C)NC(=O)c1cc(-c2ccc(C)cc2)cc(-c2ccno2)c1 (stereo not given), COC[C@@H](C)NC(=O)c1cc(-c2ccc(C)cc2)cc(-c2scnc2C)c1, CCc1ncsc1-c1cc(C(=O)NCc2cnc(C)cn2)cc(-c2ccc(C)cc2)c1, CCCc1ncoc1-c1cc(C(=O)NCc2cnc(C)cn2)cc(-c2ccc(C)cn2)c1, C[C@H](CN1CCOCC1)NC(=O)c1cc(-c2cncs2)cc(-c2ccc(F)cc2Cl)c1, CC(=O)N1CCN(C[C@@H](C)NC(=O)c2cc(-c3ccc(C)cc3)cc(-c3cncs3)c2)CC1, Cc1ccc(-c2cc(C(=O)N[C@H](C)CN3CCS(=O)(=O)CC3)cc(-c3scnc3C)c2)cc1, CCC(C)NC(=O)c1cc(-c2ccc(C)cc2)cc(-c2nccs2)c1 (stereo not given), Cc1ccc(-c2cc(C(=O)NC(C)(C)c3ccccc3)cc(-c3nccs3)c2)cc1, Cc1ccc(-c2cc(C(=O)N[C@H](C)CN3CCN(S(C)(=O)=O)CC3)cc(-c3cncs3)c2)c(F)c1, Cc1ccc(-c2cc(C(=O)N[C@H](C)CN3CCOCC3)cc(-c3scnc3C)c2)cc1, COCC(C)NC(=O)c1cc(-c2ccc(C)cc2)cc(-c2ccns2)c1 (stereo not given), Cc1ccc(-c2cc(C(=O)NC(C)c3cnccn3)cc(-c3nccs3)c2)cc1 (stereo not given), COCC(C)NC(=O)c1cc(-c2ccc(C)cc2)cc(-c2cocn2)c1 (stereo not given), CCC(C)(C)NC(=O)c1cc(-c2ccc(C)cc2)cc(-c2nccs2)c1, Cc1ccc(-c2cc(C(=O)N[C@H](C)CO)cc(-c3nccs3)c2)cc1, COCC(C)NC(=O)c1cc(-c2ccc(C)cc2)cc(-c2scnc2C)c1 (stereo not given), COC[C@H](C)NC(=O)c1cc(-c2ccc(C)cc2)cc(-c2scnc2C)c1, COCC(C)NC(=O)c1cc(-c2cncs2)cc(-c2ccc(F)cc2Cl)c1 (stereo not given), Cc1ccc(-c2cc(C(=O)N[C@H](C)CN3CCN(S(C)(=O)=O)CC3)cc(-c3nccs3)c2)c(F)c1, Cc1ccc(-c2cc(C(=O)NC(C)c3cnccn3)cc(-c3scnc3C)c2)cc1 (stereo not given), Cc1ccc(-c2cc(C(=O)NC(C)CO)cc(-c3scnc3C)c2)cc1 (stereo not given), Cc1ccc(-c2cc(C(=O)NC(C)c3cnccn3)cc(-c3cncs3)c2)cc1 (stereo not given), Cc1ccc(-c2cc(C(=O)N[C@H](C)CO)cc(-c3nccs3)c2)c(F)c1, COCC(C)NC(=O)c1cc(-c2ccc(C)cc2)cc(-c2nc3ccccc3s2)c1 (stereo not given), COCC(C)NC(=O)c1cc(-c2ccc(C)cc2)cc(-c2oncc2C)c1 (stereo not given), COCC(C)NC(=O)c1cc(-c2cncs2)cc(-c2ccc(F)cc2F)c1 (stereo not given), CCOC(=O)c1cnc(-c2cc(C(=O)NC(C)COC)cc(-c3ccc(C)cc3)c2)s1 (stereo not given), Cc1ccc(-c2cc(C(=O)N[C@H](C)CN3CCN(S(C)(=O)=O)CC3)cc(-c3nccs3)c2)cc1, CNC(=O)c1cnc(-c2cc(C(=O)NC(C)COC)cc(-c3ccc(C)cc3)c2)s1 (stereo not given), COCC(C)NC(=O)c1cc(-c2ccc(C)cc2)cc(-c2ncc(C(=O)N(C)C)s2)c1 (stereo not given), Cc1ccc(-c2cc(C(=O)NC(C)c3ccco3)cc(-c3nccs3)c2)cc1 (stereo not given), Cc1ccc(-c2cc(C(=O)NC(C)c3cnccn3)cc(-c3nccs3)c2)c(F)c1 (stereo not given), Cc1ccc(-c2cc(C(=O)NCc3ccc(C)nn3)cc(-c3ncsc3C(C)C)c2)nc1, COc1ccc([C@@H](C)NC(=O)c2cc(-c3ccc(C)cc3)cc(-c3nccs3)c2)cc1, COCC(C)NC(=O)c1cc(-c2ccc(C)cc2)cc(-c2cnco2)c1 (stereo not given), C[C@H](CN1CCOCC1)NC(=O)c1cc(-c2nccs2)cc(-c2ccc(F)cc2Cl)c1, CC(=O)N1CCN(C[C@@H](C)NC(=O)c2cc(-c3ccc(C)cc3)cc(-c3scnc3C)c2)CC1, COCC(C)NC(=O)c1cc(-c2ccc(C)cc2)cc(-c2cncs2)c1 (stereo not given), CC(=O)N1CCN(C[C@@H](C)NC(=O)c2cc(-c3nccs3)cc(-c3ccc(C)cc3F)c2)CC1, CC(=O)N1CCN(C[C@@H](C)NC(=O)c2cc(-c3ccc(C)cc3)cc(-c3nccs3)c2)CC1, COCC(C)NC(=O)c1cc(-c2ccc(C)cc2)cc(-c2nccs2)c1 (stereo not given), COCC(C)NC(=O)c1cc(-c2ccc(C)cc2)cc(-c2ncco2)c1 (stereo not given), Cc1ccc(-c2cc(C(=O)NCCOCCO)cc(-c3nccs3)c2)cc1, C[C@H](CN1CCN(S(C)(=O)=O)CC1)NC(=O)c1cc(-c2nccs2)cc(-c2ccc(F)cc2Cl)c1, COCC(C)NC(=O)c1cc(-c2ccc(C)cc2)cc(-c2ncc(C(=O)NC(C)C)s2)c1 (stereo not given), C[C@H](CN1CCN(S(C)(=O)=O)CC1)NC(=O)c1cc(-c2cncs2)cc(-c2ccc(F)cc2Cl)c1, Cc1ccc(-c2cc(C(=O)N[C@H](C)CN3CCOCC3)cc(-c3nccs3)c2)cc1, Cc1ccc(-c2cc(C(=O)NCc3ccc(C)nn3)cc(-c3scnc3C(C)C)c2)nc1, Cc1ccc(-c2cc(C(=O)N[C@H](C)CN3CCOCC3)cc(-c3nccs3)c2)c(F)c1, Cc1ccc(-c2cc(C(=O)N[C@@H](C)CO)cc(-c3scnc3C(C)C)c2)nc1, Cc1ccc(-c2cc(C(=O)N[C@H](C)CN3CCOCC3)cc(-c3cncs3)c2)cc1, Cc1ccc(-c2cc(C(=O)NC(C)CN(C)C)cc(-c3nccs3)c2)cc1 (stereo not given), COCC(C)NC(=O)c1cc(-c2ccc(C)cc2)cc(-c2cscn2)c1 (stereo not given)
